Laboratory results taken from patent publication US6737383B1, “Herbicidal oxadiazolidines” (priority 1999, dated 2004).

How the values were obtained:
wheat = test: Test B pre/postemergence wheat; type: in vivo, Triticum aestivum
Outline: (§1)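 Herbicidal effect was estimated by eye on a ten-point control scale after plants spent twelve to sixteen days in a greenhouse following soil or foliar treatment. Foliar sprays targeted plants at one to four leaves; all doses were formulated in a non-phytotoxic solvent with surfactant.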

rape = test: Test B pre/postemergence rape; type: in vivo, Brassica napus
Outline: as §1

crabgrass = test: Test B pre/postemergence crabgrass; type: in vivo, Digitaria sanguinalis
Outline: as §1

sugar beet = test: Test B pre/postemergence sugar beet; type: in vivo, Beta vulgaris
Outline: as §1

giant foxtail = test: Test B pre/postemergence giant foxtail; type: in vivo, Setaria faberii
Outline: as §1

smallflower flatsedge = test: Test B flood test smallflower flatsedge; type: in vivo, Cyperus difformis
Outline: (§2)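 Each value is a visual injury score relative to controls, with 10 meaning complete control and 0 no effect. Evaluation took place twelve to sixteen days after the 2-leaf-stage plants were treated and kept in the greenhouse.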

purple nutsedge = test: Test B pre/postemergence purple nutsedge; type: in vivo, Cyperus rotundus
Outline: as §1

cocklebur = test: Test B pre/postemergence cocklebur; type: in vivo, Xanthium strumarium
Outline: as §1

bamyardgrass = test: Test B flood test barnyardgrass; type: in vivo, Echinochloa crus-galli
Outline: as §2

surinam grass = test: Test B pre/postemergence surinam grass; type: in vivo, Brachiaria decumbens
Outline: as §1

duck salad = test: Test B flood test duck salad; type: in vivo, Heteranthera limosa
Outline: as §2

blackgrass = test: Test B pre/postemergence blackgrass; type: in vivo, Alopecurus myosuroides
Outline: as §1

velvetleaf = test: Test B pre/postemergence velvetleaf; type: in vivo, Abutilon theophrasti
Outline: as §1

rice = test: Test B flood test rice; type: in vivo, Oryza sativa
Outline: as §2

corn = test: Test B pre/postemergence corn; type: in vivo, Zea mays
Outline: as §1

soybean = test: Test B pre/postemergence soybean; type: in vivo, Glycine max
Outline: as §1

bedstraw = test: Test B pre/postemergence bedstraw; type: in vivo, Galium aparine
Outline: as §1

[1] = Postemergence, Rate 31 g/ha, visual rating, scale 0 to 10 (0 no effect, 10 complete control)
[2] = Preemergence, Rate 31 g/ha, visual rating, scale 0 to 10 (0 no effect, 10 complete control)
[3] = Preemergence, Rate 62 g/ha, scale of 0 to 10 where 0 is no effect and 10 is complete control
[4] = Rate 16 g/ha, Postemergence, scale 0 to 10, 0 no effect, 10 complete control
[5] = Rate 16 g/ha, Preemergence, scale 0 to 10, 0 no effect, 10 complete control
[6] = Rate 62 g/ha, Postemergence, scale 0 to 10 (0 no effect, 10 complete control)
[7] = Rate 125 g/ha, Postemergence, scale of 0 to 10 where 0 is no effect and 10 is complete control
[8] = Rate 125 g/ha, Preemergence, scale of 0 to 10 where 0 is no effect and 10 is complete control
[9] = Rate 16 g/ha, head printed Pre-emergence (flood test species), scale 0 to 10, 0 no effect, 10 complete control
[10] = Rate 31 g/ha, Pre-emergence section (flood test species), scale 0 to 10
[11] = Rate 62 g/ha, headed Pre-emergence (flood test species), scale 0 to 10 (0 no effect, 10 complete control)
[12] = Rate 125 g/ha, Pre-emergence, flood test species, scale 0 to 10 where 0 is no effect and 10 is complete control
[13] = Rate 250 g/ha, Pre-emergence, flood-test species, scale 0 to 10, 0 is no effect, 10 is complete control
[14] = Rate 500 g/ha, Pre-emergence, flood test species, scale 0 to 10 (0 no effect, 10 complete control)

CCCCCn1c(=O)on(C(=O)N(c2ccc(F)cc2)C(C)C)c1=O [Compound 290]
Wheat plant response rating (wheat; [1]): 0 | Wheat plant response rating (wheat; [2]): 0 | Wheat plant response rating (wheat; [3]): 0 | Wheat plant response rating (wheat; [4]): 0 | Wheat plant response rating (wheat; [5]): 0 | Wheat plant response rating (wheat; [6]): 0 | Wheat plant response rating (wheat; [7]): 0 | Wheat plant response rating (wheat; [8]): 0 | Rape plant response rating (rape; [1]): 0 | Rape plant response rating (rape; [2]): 0 | Rape plant response rating (rape; [3]): 0 | Rape plant response rating (rape; [4]): 0 | Rape plant response rating (rape; [5]): 0 | Rape plant response rating (rape; [6]): 0 | Rape plant response rating (rape; [7]): 0 | Rape plant response rating (rape; [8]): 0 | Crabgrass plant response rating (crabgrass; [1]): 0 | Crabgrass plant response rating (crabgrass; [2]): 0 | Crabgrass plant response rating (crabgrass; [3]): 1 | Crabgrass plant response rating (crabgrass; [4]): 0 | Crabgrass plant response rating (crabgrass; [5]): 0 | Crabgrass plant response rating (crabgrass; [6]): 0 | Crabgrass plant response rating (crabgrass; [7]): 0 | Crabgrass plant response rating (crabgrass; [8]): 3 | Sugarbeets plant response rating (sugar beet; [1]): 0 | Sugarbeets plant response rating (sugar beet; [2]): 0 | Sugarbeets plant response rating (sugar beet; [3]): 2 | Sugarbeets plant response rating (sugar beet; [4]): 0 | Sugarbeets plant response rating (sugar beet; [5]): 0 | Sugarbeets plant response rating (sugar beet; [6]): 0 | Sugarbeets plant response rating (sugar beet; [7]): 0 | Sugarbeets plant response rating (sugar beet; [8]): 5 | Giant foxtail plant response rating (giant foxtail; [1]): 0 | Giant foxtail plant response rating (giant foxtail; [2]): 2 | Giant foxtail plant response rating (giant foxtail; [3]): 8 | Giant foxtail plant response rating (giant foxtail; [4]): 0 | Giant foxtail plant response rating (giant foxtail; [5]): 2 | Giant foxtail plant response rating (giant foxtail; [6]): 0 | Giant foxtail plant response rating (giant foxtail; [7]): 0 | Giant foxtail plant response rating (giant foxtail; [8]): 9 | S. Flatsedge plant response rating (smallflower flatsedge; [9]): 0 | S. Flatsedge plant response rating (smallflower flatsedge; [10]): 0 | S. Flatsedge plant response rating (smallflower flatsedge; [11]): 0 | S. Flatsedge plant response rating (smallflower flatsedge; [12]): 2 | S. Flatsedge plant response rating (smallflower flatsedge; [13]): 0 | S. Flatsedge plant response rating (smallflower flatsedge; [14]): 0 | Nutsedge plant response rating (purple nutsedge; [1]): 0 | Nutsedge plant response rating (purple nutsedge; [2]): 0 | Nutsedge plant response rating (purple nutsedge; [3]): 0 | Nutsedge plant response rating (purple nutsedge; [4]): 0 | Nutsedge plant response rating (purple nutsedge; [5]): 0 | Nutsedge plant response rating (purple nutsedge; [6]): 0 | Nutsedge plant response rating (purple nutsedge; [7]): 0 | Cocklebur plant response rating (cocklebur; [1]): 0 | Cocklebur plant response rating (cocklebur; [2]): 0 | Cocklebur plant response rating (cocklebur; [3]): 0 | Cocklebur plant response rating (cocklebur; [4]): 0 | Cocklebur plant response rating (cocklebur; [5]): 0 | Cocklebur plant response rating (cocklebur; [6]): 0 | Cocklebur plant response rating (cocklebur; [7]): 0 | Cocklebur plant response rating (cocklebur; [8]): 0 | Barnyardgrass plant response rating (bamyardgrass; [9]): 0 | Barnyardgrass plant response rating (bamyardgrass; [10]): 6 | Barnyardgrass plant response rating (bamyardgrass; [11]): 3 | Barnyardgrass plant response rating (bamyardgrass; [12]): 4 | Barnyardgrass plant response rating (bamyardgrass; [13]): 4 | Barnyardgrass plant response rating (bamyardgrass; [14]): 5 | B. signalgrass plant response rating (surinam grass; [1]): 0 | B. signalgrass plant response rating (surinam grass; [2]): 0 | B. signalgrass plant response rating (surinam grass; [3]): 0 | B. signalgrass plant response rating (surinam grass; [4]): 0 | B. signalgrass plant response rating (surinam grass; [5]): 0 | B. signalgrass plant response rating (surinam grass; [6]): 0 | B. signalgrass plant response rating (surinam grass; [7]): 0 | B. signalgrass plant response rating (surinam grass; [8]): 0 | Ducksalad plant response rating (duck salad; [9]): 0 | Ducksalad plant response rating (duck salad; [10]): 0 | Ducksalad plant response rating (duck salad; [11]): 0 | Ducksalad plant response rating (duck salad; [12]): 0 | Ducksalad plant response rating (duck salad; [13]): 0 | Ducksalad plant response rating (duck salad; [14]): 0 | Blackgrass plant response rating (blackgrass; [1]): 0 | Blackgrass plant response rating (blackgrass; [2]): 0 | Blackgrass plant response rating (blackgrass; [3]): 2 | Blackgrass plant response rating (blackgrass; [4]): 0 | Blackgrass plant response rating (blackgrass; [5]): 0 | Blackgrass plant response rating (blackgrass; [6]): 0 | Blackgrass plant response rating (blackgrass; [7]): 0 | Blackgrass plant response rating (blackgrass; [8]): 2 | Velvetleaf plant response rating (velvetleaf; [1]): 0 | Velvetleaf plant response rating (velvetleaf; [2]): 0 | Velvetleaf plant response rating (velvetleaf; [3]): 0 | Velvetleaf plant response rating (velvetleaf; [4]): 0 | Velvetleaf plant response rating (velvetleaf; [5]): 0 | Velvetleaf plant response rating (velvetleaf; [6]): 0 | Velvetleaf plant response rating (velvetleaf; [7]): 0 | Velvetleaf plant response rating (velvetleaf; [8]): 0 | Rice plant response rating (rice; [9]): 0 | Rice plant response rating (rice; [10]): 0 | Rice plant response rating (rice; [11]): 0 | Rice plant response rating (rice; [12]): 0 | Rice plant response rating (rice; [13]): 0 | Rice plant response rating (rice; [14]): 0 | Corn plant response rating (corn; [1]): 0 | Corn plant response rating (corn; [2]): 0 | Corn plant response rating (corn; [3]): 0 | Corn plant response rating (corn; [4]): 0 | Corn plant response rating (corn; [5]): 0 | Corn plant response rating (corn; [6]): 0 | Corn plant response rating (corn; [7]): 0 | Corn plant response rating (corn; [8]): 0 | Soybean plant response rating (soybean; [1]): 1 | Soybean plant response rating (soybean; [2]): 0 | Soybean plant response rating (soybean; [3]): 0 | Soybean plant response rating (soybean; [4]): 1 | Soybean plant response rating (soybean; [5]): 0 | Soybean plant response rating (soybean; [6]): 2 | Soybean plant response rating (soybean; [7]): 2 | Soybean plant response rating (soybean; [8]): 0 | Bedstraw plant response rating (bedstraw; [1]): 0 | Bedstraw plant response rating (bedstraw; [2]): 0 | Bedstraw plant response rating (bedstraw; [3]): 0 | Bedstraw plant response rating (bedstraw; [4]): 0 | Bedstraw plant response rating (bedstraw; [5]): 0 | Bedstraw plant response rating (bedstraw; [6]): 0 | Bedstraw plant response rating (bedstraw; [7]): 0 | Bedstraw plant response rating (bedstraw; [8]): 3
